Source: PubChem BioAssay AID489040 (Sanford-Burnham Center for Chemical Genomics, 2010)
The source made the active and inactive calls.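 Rule for the calls: active = mean half-maximal activating concentration from the dose-response fit at or below a set limit; inactive = the rest.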

Biological target: CHO-XBP1 luciferase reporter, IRE1-XBP1 UPR activation
Assay: activators of IRE1-XBP1 UPR arm, dose response, counter-screen for apoptotic UPR arm activators, CHO-XBP1 cells, luminescence (AID 489040);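 note: reporter read after six hours of compound exposure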

COc1ccc(CNC[C@@H](CCCCN(C)Cc2ccc(OC)cc2)N2C[C@H](c3ccccc3)N(CCc3ccc(Cl)c(Cl)c3)C(=O)C2=O)cc1
EC50: > 80 µM (inactive)

COc1cc(C(Nc2ccccn2)c2ccc3ccc(C)nc3c2O)cc(OC)c1O (centres undefined)
EC50: > 80 µM (inactive)

CC1=NN(c2cccc(C(=O)O)c2)C(=O)/C1=C\C=C/c1ccccc1
EC50: > 80 µM (inactive)

CCn1c(O)c(C2=c3ccccc3=NC2=O)c2cc(Br)ccc21
EC50: > 80 µM (inactive)

Oc1c(C(c2ccccc2Cl)N2CCCC2)ccc2cccnc12 (centres undefined)
EC50: > 80 µM (inactive)

CN(C)C(=S)N=Nc1[nH]c2ccccc2c1O
EC50: > 80 µM (inactive)

Cn1c(/C=C/c2ccc([N+](=O)[O-])o2)nc2ccccc2c1=O
EC50: > 80 µM (inactive)

O=C(Nc1ccc(S(=O)(=O)N2CCOCC2)cc1)c1ccc([N+](=O)[O-])o1
EC50: > 80 µM (inactive)

CC1=NOC(=O)/C1=C/c1ccc(-c2ccc(Cl)cc2)o1
EC50: > 80 µM (inactive)

CCOC(=O)Cc1csc(/N=C/c2c(O)n(-c3ccc(C)c(C)c3)c(=O)c3ccccc23)n1
EC50: 18.3 µM

CCc1cccc2c(C(=O)CCl)c[nH]c12
EC50: > 80 µM (inactive)

C[C@@H](NC(=O)c1coc(=O)c(Br)c1)c1ccccc1
EC50: > 80 µM (inactive)

CS(=O)(=O)Oc1ccc2c(c1)O/C(=C\C=C\c1ccccc1)C2=O
EC50: > 80 µM (inactive)

CC1(C)CC(=O)C(=Cc2cn(-c3ccccc3)nc2-c2ccc(Cl)cc2)C(=O)C1
EC50: > 80 µM (inactive)

COc1cccc(N=Nc2ccc(O)c3ncccc23)c1
EC50: > 80 µM (inactive)

O=C(Oc1oc(-c2ccco2)nc1C=Nc1ccc(Cl)cc1)c1ccco1
EC50: > 80 µM (inactive)

O=[N+]([O-])c1ccccc1S(=O)(=O)Nc1cccc2cccnc12
EC50: > 80 µM (inactive)

Oc1ccc2ccccc2c1N=Nc1ccccn1
EC50: > 80 µM (inactive)

COc1ccc(/C=C\c2nc(=O)c3ccccc3o2)cc1
EC50: > 80 µM (inactive)

O=C(CCN1C(=O)C2C3C=CC(C4CC34)C2C1=O)Oc1cccc2cccnc12 (centres undefined)
EC50: > 80 µM (inactive)

Cc1ccc2cccc(NS(=O)(=O)c3ccccc3)c2n1
EC50: > 80 µM (inactive)

Cc1ccc(Cc2cnc(NC(=O)/C(C#N)=C/c3ccc(-c4ccc([N+](=O)[O-])cc4)o3)s2)cc1
EC50: inactive

O=C1NC(=S)NC(=O)C1=Cc1ccc(Br)s1
EC50: > 80 µM (inactive)

CC(=O)c1cccc(N=Cc2c(O)c3ccccc3oc2=O)c1
EC50: 15.4 µM

CC1=CC(=O)C(C(C)C)=C/C1=N/OC(=O)c1cccc([N+](=O)[O-])c1
EC50: > 80 µM (inactive)

CCSC1(SCC)N=C(N)C2(C#N)C(c3ccc(OC)c(OC)c3OC)C12C#N (centres undefined)
EC50: > 80 µM (inactive)

COC(=O)c1cc(=O)n(Cc2ccco2)c(=Nc2ccc(F)c(Cl)c2)s1
EC50: > 80 µM (inactive)

Cc1ccc(S(=O)(=O)Nc2cccc3cccnc23)c([N+](=O)[O-])c1
EC50: > 80 µM (inactive)

COc1c(Cl)cc(Cl)cc1/C=C/C(=O)c1ccc(NC(=O)c2cccs2)cc1
EC50: > 80 µM (inactive)

C=CCN=c1scc(C)n1/N=C/c1ccc(O)c(O)c1
EC50: 17.4 µM

O=C1NC(=O)N(Cc2ccccc2Cl)C(=O)/C1=C/c1cccs1
EC50: > 80 µM (inactive)

O=[N+]([O-])c1ccc(Sc2cccc3cccnc23)c([N+](=O)[O-])c1
EC50: > 80 µM (inactive)

CC(C)CNC(=O)c1coc(=O)c(Br)c1
EC50: > 80 µM (inactive)

COc1cccc(N=Nc2ccc3cccnc3c2O)c1
EC50: > 80 µM (inactive)

COc1ccc(/C=N/Nc2cc(C)nc(-n3nc(C)cc3C)n2)c(OC)c1
EC50: > 80 µM (inactive)

COc1cc(/C=C(/C#N)c2nc3ccccc3[nH]2)ccc1OCC(=O)Nc1ccccc1C(C)C
EC50: > 80 µM (inactive)

CC(=O)/C(=N\Nc1ccc(Cl)cc1Cl)Sc1cccc2cccnc12
EC50: > 80 µM (inactive)

Oc1c(Cl)cc(CN2CCOCC2)c2cccnc12
EC50: > 80 µM (inactive)

O=C1C=CC(=O)C(C2=C3C(=O)N(CCc4ccccc4)CC(=O)N3CCC2)=C1
EC50: > 80 µM (inactive)
